16 compounds from PubChem BioAssay (NCI) can be followed below.

Test systems include HCT-15 colon; MOLT-4 leukemia; NCI-H23 lung; SK-MEL-28 melanoma; UACC-62 melanoma; DU-145 prostate; RXF 393 renal; SR leukemia; T-47D breast; PC-3 prostate.
Experiment in all cases: NCI anticancer screen, dose series, 48 h

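Values below derive from 48-hour exposures of cells grown in 96-well plates, with endpoints linearly interpolated between the two concentrations bracketing the appropriate inhibition level. At the GI50, growth is halved. At the TGI there is no net growth.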

Take `[Cl-].[O-]/N=C(\c1ccccc1)c1ccccn1.[O-]/N=C(\c1ccccc1)c1ccccn1.[O-]/N=C(\c1ccccc1)c1ccccn1.[Sm+3]`: the GI50 is 32.4 µM in the assay on HCT-15 colon; 29.1 µM with MOLT-4 leukemia; 32.8 µM in the assay on NCI-H23 lung; 30.5 µM in the assay with SK-MEL-28 melanoma; 26.2 µM in the assay with UACC-62 melanoma. The TGI in the assay on HCT-15 colon was over 100 µM; with MOLT-4 leukemia, over 100 µM; in the assay on NCI-H23 lung, 87.1 µM; in the assay with SK-MEL-28 melanoma, 94.8 µM; with UACC-62 melanoma, 78.7 µM.

Regarding `O=C1c2ccccc2-c2c1c1c(=O)[nH]c3ccccc3c1n2Cc1ccccc1`, the GI50 is 43.8 µM in the assay with DU-145 prostate; 59.1 µM in the assay on HCT-15 colon; over 100 µM in the assay on MOLT-4 leukemia; 20.5 µM in the assay on NCI-H23 lung; 29.7 µM in the assay with RXF 393 renal; 84.7 µM in the assay with SK-MEL-28 melanoma. Moreover, the GI50 with SR leukemia is over 100 µM; in the assay with T-47D breast, 34.3 µM; in the assay on UACC-62 melanoma, 33.8 µM. For the same compound, the TGI is over 100 µM in the assay on DU-145 prostate; over 100 µM with HCT-15 colon; over 100 µM in the assay with MOLT-4 leukemia; 46.8 µM in the assay with NCI-H23 lung; 70.4 µM with RXF 393 renal; over 100 µM with SK-MEL-28 melanoma. For the same compound, the TGI in the assay on SR leukemia, in the assay on T-47D breast and with UACC-62 melanoma was over 100 µM throughout.

Take `CCOC(=O)C1N(S(=O)(=O)c2ccc(C)cc2)CCC12c1ccccc1N(C(C)=O)C2c1ccc(OC)c(OC)c1` (stereo not drawn): the TGI with NCI-H23 lung, in the assay on RXF 393 renal, in the assay on SK-MEL-28 melanoma and in the assay on UACC-62 melanoma was over 100 µM throughout.

Turning to `Cc1ccc(SC(CCC(Sc2ccc(C)cc2)Sc2ccc(C)cc2)Sc2ccc(C)cc2)cc1`, the TGI in the assay on HCT-15 colon, in the assay on MOLT-4 leukemia, in the assay on NCI-H23 lung, in the assay on RXF 393 renal, in the assay on SK-MEL-28 melanoma and in the assay with SR leukemia was over 100 µM throughout. In the assay on UACC-62 melanoma, this compound yielded a TGI of over 100 µM.

In the case of `O=C1c2ccccc2C(Br)(Br)c2ccccc21`, the TGI was over 31.6 µM in the assay with HCT-15 colon; over 31.6 µM with MOLT-4 leukemia; over 100 µM in the assay on NCI-H23 lung; over 31.6 µM with RXF 393 renal; over 31.6 µM in the assay on SK-MEL-28 melanoma; over 31.6 µM in the assay with SR leukemia. In addition, the TGI in the assay with UACC-62 melanoma is over 100 µM.

Consider `COC(=O)N(C(=O)OC)C(C(=O)O)C(C)C` (stereo not drawn), for which the TGI in the assay on NCI-H23 lung, in the assay with RXF 393 renal and with SK-MEL-28 melanoma was over 100 µM each time.

With `CC(=O)[CH-]C(C)=O.CC(=O)[CH-]C(C)=O.[CH2-]CCC.[CH2-]CCC.[Sn+4]`, the GI50 with HCT-15 colon was 0.68 µM; in the assay on MOLT-4 leukemia it was 0.37 µM; in the assay on NCI-H23 lung, 0.315 µM; in the assay with RXF 393 renal it was 0.0699 µM; in the assay with SK-MEL-28 melanoma, 0.436 µM; with SR leukemia it was 0.382 µM. Moreover, the GI50 with UACC-62 melanoma was 0.31 µM. For the same compound, the TGI with HCT-15 colon is 1.99 µM; in the assay on MOLT-4 leukemia, over 100 µM; in the assay with NCI-H23 lung, 1.39 µM; in the assay with RXF 393 renal it was 0.292 µM; in the assay on SK-MEL-28 melanoma it was 1.67 µM; in the assay with SR leukemia, over 100 µM. This compound had a TGI in the assay with UACC-62 melanoma of 1.18 µM.

On to `COc1ccc2c(CN3CCCCC3CO)cc3cc(OC)c(OC)cc3c2c1` (stereo not drawn), for which the TGI was found to be 20.8 µM in the assay on HCT-15 colon; 14.9 µM in the assay with MOLT-4 leukemia; 16.9 µM in the assay with NCI-H23 lung; 18 µM in the assay on RXF 393 renal; 18.6 µM in the assay with SK-MEL-28 melanoma; 22.2 µM with SR leukemia. The compound further returned a TGI with UACC-62 melanoma of 25.7 µM.

With `COc1ccc(-c2cn[nH]c2-c2cc(OC)c3c(c2)OCO3)cc1`, the GI50 with DU-145 prostate is 0.402 µM; with HCT-15 colon, 0.0794 µM; with MOLT-4 leukemia, 0.541 µM; in the assay on NCI-H23 lung, 0.43 µM; with PC-3 prostate it was 0.262 µM; in the assay with RXF 393 renal it was 0.176 µM. Besides, the GI50 was 1.22 µM in the assay on SK-MEL-28 melanoma, 0.0631 µM in the assay on SR leukemia and 0.397 µM in the assay with UACC-62 melanoma. The TGI was determined as 14.9 µM with DU-145 prostate; 14.4 µM with HCT-15 colon; 15.1 µM in the assay with MOLT-4 leukemia; 14.7 µM with NCI-H23 lung; 21.8 µM with PC-3 prostate; 0.684 µM in the assay with RXF 393 renal. The TGI in the assay on SK-MEL-28 melanoma amounted to 28.5 µM; with SR leukemia it was 16.8 µM; in the assay on UACC-62 melanoma it was 14.9 µM.

`CCCCCC[N+](C)(C)Cc1ccc(C[N+](C)(C)CCCCCC)cc1`: the TGI with HCT-15 colon came out at 23.7 µM; in the assay with SK-MEL-28 melanoma, 23.6 µM; with SR leukemia, 5.08 µM; in the assay with UACC-62 melanoma, 29.7 µM.

Consider `CN(C)CC(C)(C)/C(=N\Nc1ccccc1)c1ccccc1`, for which the TGI is 53.8 µM in the assay on HCT-15 colon; over 100 µM with MOLT-4 leukemia; over 100 µM in the assay on NCI-H23 lung; over 100 µM in the assay with RXF 393 renal; over 100 µM in the assay on SK-MEL-28 melanoma; 40.8 µM in the assay with UACC-62 melanoma.

With `CCCCCC(=O)C(C)C1=Nc2nnc(CCCCCCCc3nnc4n3C(=O)C(C(C)C(=O)CCCCC)=N4)n2C1=O` (stereo not drawn), the TGI in the assay on HCT-15 colon, with MOLT-4 leukemia, in the assay on NCI-H23 lung, in the assay with RXF 393 renal, in the assay with SK-MEL-28 melanoma and in the assay on SR leukemia was over 100 µM throughout. Besides, in the assay on UACC-62 melanoma, the TGI is over 100 µM.

In the case of `O=c1nc(/C=C/c2ccccc2Cl)cc2n1CCN2CCO`, the TGI in the assay on HCT-15 colon, with MOLT-4 leukemia, in the assay with RXF 393 renal, with SK-MEL-28 melanoma, in the assay with SR leukemia and in the assay with UACC-62 melanoma was over 100 µM in each case.

For the compound `COc1ccc(S(=O)(=O)Nc2ccccc2C(=O)O)cc1`, the TGI in the assay on HCT-15 colon, in the assay on MOLT-4 leukemia, with NCI-H23 lung, with RXF 393 renal, in the assay with SK-MEL-28 melanoma and in the assay on UACC-62 melanoma was over 100 µM in each case.

On to `COc1ccc(Nc2nc3ccc(C(F)(F)F)cc3nc2-c2ccccc2)cc1OC`, for which the TGI is over 100 µM with HCT-15 colon; over 100 µM in the assay on MOLT-4 leukemia; over 100 µM in the assay on NCI-H23 lung; 83.6 µM with RXF 393 renal; over 100 µM with SK-MEL-28 melanoma; over 100 µM in the assay with SR leukemia. In the assay with UACC-62 melanoma, this compound came in with a TGI of over 100 µM.

In the case of `C[N-]c1nnnn1C.[Au+].c1ccc([PH+](c2ccccc2)c2ccccc2)cc1`, the GI50 is 2.17 µM in the assay on HCT-15 colon; 1.62 µM in the assay on MOLT-4 leukemia; 1.97 µM with NCI-H23 lung; 0.347 µM with RXF 393 renal; 1.39 µM with SK-MEL-28 melanoma; 1.11 µM in the assay on SR leukemia. In addition, the GI50 in the assay on UACC-62 melanoma is 2.06 µM. Also, the TGI turned out to be 5.72 µM with HCT-15 colon; 4.22 µM in the assay on MOLT-4 leukemia; 4.48 µM in the assay with NCI-H23 lung; 1.26 µM in the assay on RXF 393 renal; 3.13 µM with SK-MEL-28 melanoma; 4.12 µM in the assay with SR leukemia. For the same compound, the TGI in the assay with UACC-62 melanoma came to 6.87 µM.
